The test system of this test is osteoclast pregenitor cells. The test can be described thus: Inhibition rates of furan derivatives versus osteoclast formation (TRAP staining). The class given is cell-based, mice. Conditions: TRAP-positive multinucleated cells, untreated control set as 100%. How it is done: First, bone marrow cells were isolated, as follow. After sacrificing 7-9 week female mice by cervical dislocation, femur and tibia were excised aseptically while removing attached soft tissues. After cutting both ends of long bones, 1 ml of an enzyme solution, containing 0.1% collagenase (Gibco), 0.05% trypsin and 0.5 mM EDTA (Gibco), was injected to the bone marrow cavity at one end using a syringe with a 26-guage needle, and bone marrow was then collected. After shaking the recovered bone marrow for 30 min, bone marrow cells were collected, and cultured in α-minimum essential medium (α-MEM) supplemented with 10% FBS for 24 hrs. Then, non-adherent cells were collected, which are osteoclast pregenitors, aliquotted onto culture plates at a density of 2×10^5 cells per well, and cultured for 8 days in α-MEM supplemented with 20 ng/ml of macrophage-colony stimulating factor (M-CSF, Peprotech, USA) and 30 ng/ml RANKL (Peprotech, USA). During the 8 days of culturing, the cells were treated with the Compound 1. Thereafter, osteoclast formation was investigated by fixing the cultured cells and then carrying out TRAP staining, as described in the following Experimental Example 2.2. In addition, resorption activity of osteoclasts was investigated by measuring the absorption area after removing osteoclasts in cultures in calcium phosphate-coated plates, as described in Experimental Example 2.3, below.
After cell culture, the adherent cells were washed with PBS, and TRAP staining was performed, as follows. After being fixed with citrate-acetate-formaldehyde for 5 min, the cells were incubated for 1 hr in acetate buffer (prewarmed at 37° C., pH 5.0) containing naphthol AS-BI phosphate, fast Garnet GBC and 7 mM tartrate buffer (pH 5.0). TRAP-positive multinucleated cells having 3 or more nuclei were considered as osteoclasts.
Osteoclast pregenitor cells were isolated, and their differentiation to mature osteoclasts was induced, according to the same method as in the Experimental Example 2-1, while treated with each of the furan derivatives of the present invention. According to the same method as in the Experimental Example 2-2, TRAP staining performed, and TRAP-positive multinucleated cells were counted. An inhibition rate of each furan derivative against osteoclast formation was expressed as percentage, wherein the number of stained cells in a control not treated the furan derivative was arbitrarily set as 100% (Tables 14 to 16).

As for `O=C(O)c1ccc(COc2ccc(Br)cc2)o1` [Compound 103], the “Inhibition rate against osteoclast formation, %” value (“Inhibition rate … %” for short) worked out at 0% (0.1 μM), 0% (1 μM) and 2.77% (10 μM).

Take `O=C(O)c1ccc(COc2ccccc2Cl)o1` [Compound 107]: the “Inhibition rate … %” value is, setting by setting: (0.1 μM) 0%; (1 μM) 0%; (10 μM) 32%.

On to `O=C(O)c1ccc(COc2ccccc2Br)o1` [Compound 108], for which the “Inhibition rate … %” value amounted to 0% (0.1 μM), 0% (1 μM) and 14.72% (10 μM).

With `O=C(O)c1ccc(COc2cc(Cl)ccc2Cl)o1` [Compound 109], the “Inhibition rate … %” value reads like this: (0.1 μM) 0%; (1 μM) 0%; (10 μM) 3.25%.

As for `O=C(O)c1ccc(COc2cccc(Cl)c2)o1` [Compound 112], the “Inhibition rate … %” value (0.1 μM) was determined as 0%; the “Inhibition rate … %” value (1 μM) came to 0%; the “Inhibition rate … %” value (10 μM) stood at 7.79%.

As for `CC(C)c1ccc(OCc2ccc(C(=O)O)o2)cc1` [Compound 114], the “Inhibition rate … %” value runs as follows: (0.1 μM) 0%; (1 μM) 0%; (10 μM) 4.2%.

Take `O=C(O)c1ccc(COc2cccc3ccccc23)o1` [Compound 117]: the “Inhibition rate … %” value came to 0% (0.1 μM), 0% (1 μM) and 5.86% (10 μM).

In the case of `Cc1cc(OCc2ccc(C(=O)O)o2)ccc1Cl` [Compound 119], the “Inhibition rate … %” value reads like this: (0.1 μM) 0%; (1 μM) 0%; (10 μM) 37.02%.

Consider `O=C(O)c1ccc(CSCc2ccccc2)o1` [Compound 120], for which the “Inhibition rate … %” value was 0% (0.1 μM), 0% (1 μM) and 27.99% (10 μM).

Take `CCC(C)NC(=O)c1ccc(COc2ccc(I)cc2)o1` (stereo not drawn) [Compound 121]: the “Inhibition rate … %” value (0.1 μM) was 0%; the “Inhibition rate … %” value (1 μM) is recorded as 0%; the “Inhibition rate … %” value (10 μM) is on record as 7.12%.

In the case of `CCN(CC)C(=O)c1ccc(COc2ccc(Cl)c(C)c2)o1` [Compound 123], the “Inhibition rate … %” value reads like this: (0.1 μM) 0%; (1 μM) 6.9%; (10 μM) 100%.

On to `CC1CCN(C(=O)c2ccc(COc3cc(Cl)ccc3Cl)o2)CC1` [Compound 124], for which the “Inhibition rate … %” value reads like this: (0.1 μM) 0%; (1 μM) 0%; (10 μM) 7.62%.

As for `CC(C)(C)NC(=O)c1ccc(COCC(F)(F)F)o1` [Compound 127], the “Inhibition rate … %” value was determined as 0% (0.1 μM), 0% (1 μM) and 13.82% (10 μM).

Consider `O=C(c1ccc(COc2ccccc2Br)o1)N1CCCCCC1` [Compound 128], for which the “Inhibition rate … %” value by setting is: (0.1 μM) 6.54%; (1 μM) 0%; (10 μM) 97.65%.

For the compound `CC(C)(C)NC(=O)c1ccc(COc2ccccc2Br)o1` [Compound 129], the “Inhibition rate … %” value (0.1 μM) stood at 0%; the “Inhibition rate … %” value (1 μM) amounted to 0%; the “Inhibition rate … %” value (10 μM) was found to be 2.2%.

As to `CC(C)NC(=O)c1ccc(CNc2cc(Cl)ccc2Cl)o1` [Compound 130], the “Inhibition rate … %” value is, setting by setting: (0.1 μM) 0%; (1 μM) 0%; (10 μM) 7.84%.

(Values after patent publication US20060004088A1, “Furan derivatives for preventing and curing osteoporosis and pharmaceutical compositions containing the same” (OCT INC., priority 2002, published 2006).)
